According to patent publication US8906349B2, “Oral care composition” (priority 2009, dated 2014):
In brackets after ≈: the same amount, converted by molar mass. Read-outs that look alike come from different tables or passages of the source.

Experiments:
Format in all cases: cell-based
[1] = tested on: five-species biofilm: A. viscosus, Lactobacillus casei, Streptococcus oralis, Fusobacterium nucleatum and Veillonella parvula; assay: Multispecies biofilm formation on saliva coated hydroxyapatite disks, 48 h, OD610 (Example 6); conditions: 20 ppm of Triclosan alone, FIG. 5
Method: The ability of compositions comprising Triclosan and bisabolol either alone or in combination to inhibit biofilm formation were tested in a multispecies model where the biofilms comprised five representative oral bacterial species: A. viscosus, Lactobacillus casei, Streptococcus oralis, Fusobacterium nucleatum and Veillonella parvula. Saliva coated hydroxyapatite (HAP) disks were inoculated with this five-species mix of bacteria in the presence Triclosan alone, bisabolol alone or with a 2:1 concentration of bisabolol:Triclosan. Disks were incubated for 48 h to allow biofilm formation to occur. Biofilm containing disks are were incubated in 1 ml of 0.25% trypsin solution for 45 min at 37° C. to release the biofilm and biomass was read as the OD610 of the trypsin solution.
In order to determine any antibiofilm effect beyond that of Triclosan, it was necessary to reduce the concentration of Triclosan below the inhibitory concentration. […]

A. viscosus = assay: Minimum inhibitory concentration, serial dilution in 96-well plate, 24 h; conditions: Actinomyces viscosus, read-out: MIC (A. viscosus)
Method: The minimum inhibitory concentration for actives was determined by incubating Actinomyces viscosus bacteria with serial dilutions of the active for 24 hours and determining the lowest concentration at which growth of this species was inhibited. Briefly, 100 μl final volume actives were serially diluted in 0.5× tryptic soy broth (TSB) across duplicate wells of a 96-well flat bottom microtiter plate. An overnight culture of bacteria was diluted to an OD610 ˜0.2 and 100 μl of this was added to each well. Plates were incubated overnight at 37° C. OD610 was read for each well and the MIC was determined as the concentration of active in the last well where bacterial growth was inhibited.

A. viscosus biofilm [2] = assay: Bioenhancement assay: BEC50 of antimicrobial agents with or without bisabolol, crystal violet, 24 h (Examples 4 and 5)
A. viscosus biofilm [3] = assay: Biofilm Eradication Concentration (BEC50), crystal violet biomass, compositions serially diluted (Example 3); conditions: FIG. 2; for BEC(50) alone: active tested alone, lowest concentration with >50% reduction in biomass vs media control; for BEC50 in combination: bisabolol (0.7%) and Triclosan (0.05%) composition serially diluted, concentration of the named active in the combination
Method: A composition comprising bisabolol, a composition comprising the antibacterial agent Triclosan and a composition comprising both bisabolol and Triclosan were tested for antibiofilm activity.
A composition comprising bisabolol (0.7%), a composition comprising Triclosan (0.05%) and a composition comprising bisabolol (0.7%) and Triclosan (0.05%) were each serially diluted in a 96-well plate. A. viscosus cultures were added to each well and plates were incubated at 37° C. to allow biofilm formation to occur. Following biofilm formation, supernatants were removed and wells were stained with 0.6% crystal violet for 15 min. Biofilm biomass was quantified by reading the absorbance of each well at 590 nm and the percentage reduction in biomass relative to a control of media alone was calculated.
BEC50 is defined as the minimum concentration at which a greater than 50% reduction of biofilm formation is observed.

A. viscosus biofilm [4] = assay: Inhibition of single-species biofilm formation by serial dilutions of bisabolol (Example 2); conditions: bisabolol alone, 24 hours, FIG. 1
Method: The effect of different concentrations of bisabolol on the inhibition of A. viscosus biofilm formation was tested. A. viscosus bacteria were grown for 24 hours in the presence of serial dilutions of bisabolol or an equivalent concentration of EtOH. Wells were stained to visualize biofilm formation. The results are shown in FIG. 1 where the x-axis represents the concentration of bisabolol (or an equivalent solution of EtOH in media) and the y-axis represents the percent reduction in biofilm relative to control wells grown in media alone.

[5] = Table 2, absence of bisabolol, FIG. 4a
[6] = Table 2, presence of 50 ppm bisabolol, FIG. 4a
[7] = first Table 3, said to be raw data of FIG. 4b, absence of bisabolol
[8] = first Table 3, said to be raw data of FIG. 4b, presence of 50 ppm bisabolol

| MIC (A. viscosus; lowest concentration inhibiting growth, overnight at 37° C., 0.5× TSB) [µg/mL] | Compound | reduction in biofilm formation [1] [%] | MIC (A. viscosus) [µg/mL] | BEC50 of Triclosan alone (A. viscosus biofilm [2]; Example 4, no bisabolol, FIG. 3) [ppm] | BEC50 of Triclosan in the composition comprising bisabolol (A. viscosus biofilm [2]; Example 4, with 5 ppm bisabolol, FIG. 3) [ppm] | BEC(50) alone (A. viscosus biofilm [2]; [5]) | BEC(50) w/bisabolol (A. viscosus biofilm [2]; [6]) | BEC(50) alone (A. viscosus biofilm [2]; [7]) | BEC(50) w/bisabolol (A. viscosus biofilm [2]; [8]) | BEC(50) alone (A. viscosus biofilm [3]) | BEC50 in combination (A. viscosus biofilm [3]) [ppm] | lowest concentration inhibiting formation of single-species biofilms (A. viscosus biofilm [4]) [ppm] |
| --- | --- | --- | --- | --- | --- | --- | --- | --- | --- | --- | --- | --- |
|  | Oc1cc(Cl)ccc1Oc1ccc(Cl)cc1Cl [Triclosan] | > 60 | 3.5 (≈ 12.1 µM) | 4.13 | 1.78 | 1.465 | 0.4883 | 0.2819 | 0 | approximately 3.9 ppm | 1.95 |  |
|  | O=C([O-])CC(O)(CC(=O)[O-])C(=O)[O-].O=C([O-])CC(O)(CC(=O)[O-])C(=O)[O-].[Zn+2].[Zn+2].[Zn+2] [zinc citrate] |  |  |  |  | 208.3 | 19.53 | 52.08 | 9.766 |  |  |  |
|  | CCCCc1ccc(O)c(-c2cc(CCCC)ccc2O)c1 [butyl magnolol] |  |  |  |  | 0.5859 | 0.5859 | 0.09766 | 0.09766 |  |  |  |
|  | catechin |  |  |  |  | 812.5 | 618.75 | 187.5 | 233.5 |  |  |  |
| 125 (≈ 562 µM) | CC(C)=CCC[C@](C)(O)C1CC=C(C)CC1 (some centres unmarked) [Bisabolol] |  |  |  |  |  |  |  |  | 110 ppm | 27.3 | 110 |
|  | [Cl][Sn][Cl] [stannous chloride] |  |  |  |  | 234.375 | 161.1 | 45.11 | 59.87 |  |  |  |
|  | C=CCc1ccc(O)c(-c2cc(CC=C)ccc2O)c1 [magnolol] |  |  |  |  | 3.906 | 0.8789 | 1.07 | 0.2847 |  |  |  |
|  | CCCCCCCCCCCCCCCC[n+]1ccccc1 [CPC, cetyl pyridinium chloride] |  |  |  |  | 0.6836 | 0.4883 | 0.1196 | 1.7999E−07 |  |  |  |
|  | CCCc1ccc(O)c(-c2ccc(O)c(CCC)c2)c1 [propyl honokiol] |  |  |  |  | 2.344 | 1.367 | 0.3906 | 0.2392 |  |  |  |
|  | [F][Sn][F] [stannous flouride, stannous fluoride] |  |  |  |  | 312.5 | 86.06 | 0 | 75.56 |  |  |  |
|  | C=CCc1ccc(O)c(-c2ccc(O)c(CC=C)c2)c1 [honokiol] |  |  |  |  | 13.38 | 5.176 | 5.41 | 2.69 |  |  |  |
